Data: ChEMBL document CHEMBL5543111, “Uncovering PROTAC Sensitivity and Efficacy by Multidimensional Proteome Profiling: A Case for STAT3” (J Med Chem, 2024)
Active and inactive are the calls of the source.

Key:
[1] = biological target: T1, Protein cereblon/Signal transducer and activator of transcription 3 (Homo sapiens) (UniProt P40763+Q96SW2); assay: PROTAC activity at CRBN/STAT3 in human DB cells assessed as induction of STAT3 degradation at 5 to 10 uM measured after 24 hrs; format: cell-based; conditions: dose 5-10 µM
[2] = biological target: T1, Protein cereblon/Signal transducer and activator of transcription 3 (Homo sapiens); assay: PROTAC activity at CRBN/STAT3 in human DB cells assessed as induction of STAT3 degradation at 5 uM measured after 3 hrs; format: cell-based
[3] = test system: Pfeiffer; assay: Cytotoxicity against human Pfeiffer cells harbouring STAT3 assessed as reduction in cell viability at 2 uM measured after 3 days by CCK- method; format: functional, cell-based; conditions: time 3.0 day
[4] = test system: Pfeiffer; assay: Downregulation of NOP53 expression in human Pfeiffer at 5 to 10 uM measured after 24 hrs; format: functional, cell-based; conditions: dose 5-10 µM
[5] = test system: SUD4; assay: Downregulation of PCLAF expression in human SU-DHL-4 at 5 to 10 uM measured after 24 hrs; format: functional, cell-based; conditions: dose 5-10 µM
[6] = biological target: T2, Protein cereblon/Signal transducer and activator of transcription 5A (Homo sapiens) (UniProt P42229+Q96SW2); assay: PROTAC activity at CRBN/STAT5A in human KARPAS-299 cells assessed as induction of STAT5A degradation at 5 to 10 uM measured after 24 hrs; format: cell-based; conditions: dose 5-10 µM
[7] = test system: MOLM-16; assay: Downregulation of NOP53 expression in human MOLM16 at 5 to 10 uM measured after 24 hrs; format: functional, cell-based; conditions: dose 5-10 µM
[8] = biological target: T3, Protein cereblon/Signal transducer and activator of transcription 2 (Homo sapiens) (UniProt Q96SW2+P52630); assay: PROTAC activity at CRBN/STAT2 in human DB cells assessed as induction of STAT2 degradation at 5 to 10 uM measured after 24 hrs; format: cell-based; conditions: dose 5-10 µM
[9] = test system: DB; assay: Downregulation of NOP53 expression in human DB at 5 to 10 uM measured after 24 hrs; format: functional, cell-based; conditions: dose 5-10 µM
[10] = biological target: T4, Protein cereblon/Signal transducer and activator of transcription 6 (Homo sapiens) (UniProt P42226+Q96SW2); assay: PROTAC activity at CRBN/STAT6 in human DB cells assessed as induction of STAT6 degradation at 5 to 10 uM measured after 24 hrs; format: cell-based; conditions: dose 5-10 µM
[11] = test system: Mus musculus; assay: In vivo PROTAC activity at human Pfeiffer cells xenografted in CB-17/SCID mouse model bearing late stage of TPPRC assessed as degradation of STAT3 at administered as IV dose; format: functional, organism-based; conditions: dose 25-50 mg/kg
[12] = biological target: T1, Protein cereblon/Signal transducer and activator of transcription 3 (Homo sapiens); assay: PROTAC activity at CRBN/STAT3 in human Pfeiffer cells assessed as induction of STAT3 degradation at 5 uM measured after 3 hrs; format: cell-based
[13] = biological target: T4, Protein cereblon/Signal transducer and activator of transcription 6 (Homo sapiens); assay: PROTAC activity at CRBN/STAT6 in human KARPAS-299 cells assessed as induction of STAT6 degradation at 5 to 10 uM measured after 24 hrs; format: cell-based; conditions: dose 5-10 µM
[14] = biological target: T1, Protein cereblon/Signal transducer and activator of transcription 3 (Homo sapiens); assay: PROTAC activity at CRBN/STAT3 in human MOLM16 cells assessed as induction of STAT3 degradation at 5 uM measured after 3 hrs; format: cell-based
[15] = test system: SUP-M2; assay: Downregulation of PCLAF expression in human SUPM2 at 5 to 10 uM measured after 24 hrs; format: functional, cell-based; conditions: dose 5-10 µM
[16] = test system: SUP-M2; assay: Downregulation of NOP53 expression in human SUPM2 at 5 to 10 uM measured after 24 hrs; format: functional, cell-based; conditions: dose 5-10 µM
[17] = test system: Pfeiffer; assay: Downregulation of PCLAF expression in human Pfeiffer at 5 to 10 uM measured after 24 hrs; format: functional, cell-based; conditions: dose 5-10 µM
[18] = biological target: T5, Protein cereblon/Signal transducer and activator of transcription 1-alpha/beta (Homo sapiens) (UniProt P42224+Q96SW2); assay: PROTAC activity at CRBN/STAT1 in human KARPAS-299 cells assessed as induction of STAT1 degradation at 5 to 10 uM measured after 24 hrs; format: cell-based; conditions: dose 5-10 µM
[19] = test system: SUD4; assay: Downregulation of NOP53 expression in human SU-DHL-4 at 5 to 10 uM measured after 24 hrs; format: functional, cell-based; conditions: dose 5-10 µM
[20] = test system: Pfeiffer; assay: Downregulation of STAT3 expression in patient derived STAT3 low expressing human Pfeiffer cell organoids at 2 uM by Western blot analysis; format: functional, cell-based
[21] = biological target: T1, Protein cereblon/Signal transducer and activator of transcription 3 (Homo sapiens); assay: PROTAC activity at CRBN/STAT3 in human DB cells assessed as fold change in STAT3 degradation at 5 uM measured after 24 hrs; format: cell-based
[22] = biological target: T6, Protein cereblon/Signal transducer and activator of transcription 5B (Homo sapiens) (UniProt P51692+Q96SW2); assay: PROTAC activity at CRBN/STAT5B in human KARPAS-299 cells assessed as induction of STAT5B degradation at 5 to 10 uM measured after 24 hrs; format: cell-based; conditions: dose 5-10 µM
[23] = biological target: T2, Protein cereblon/Signal transducer and activator of transcription 5A (Homo sapiens); assay: PROTAC activity at CRBN/STAT5A in human DB cells assessed as induction of STAT5A degradation at 5 to 10 uM measured after 24 hrs; format: cell-based; conditions: dose 5-10 µM
[24] = test system: Pfeiffer; assay: Cytotoxicity against human Pfeiffer cells harbouring STAT1 assessed as reduction in cell viability measured after 3 days by CCK- method; format: functional, cell-based; conditions: time 3.0 day
[25] = test system: MOLM-16; assay: Downregulation of PCLAF expression in human MOLM16 at 5 to 10 uM measured after 24 hrs; format: functional, cell-based; conditions: dose 5-10 µM
[26] = biological target: T1, Protein cereblon/Signal transducer and activator of transcription 3 (Homo sapiens); assay: PROTAC activity at CRBN/STAT3 in human SUPM2 cells assessed as induction of STAT3 degradation at 5 uM measured after 3 hrs; format: cell-based
[27] = biological target: T3, Protein cereblon/Signal transducer and activator of transcription 2 (Homo sapiens); assay: PROTAC activity at CRBN/STAT2 in human KARPAS-299 cells assessed as induction of STAT2 degradation at 5 to 10 uM measured after 24 hrs; format: cell-based; conditions: dose 5-10 µM
[28] = biological target: T1, Protein cereblon/Signal transducer and activator of transcription 3 (Homo sapiens); assay: PROTAC activity at CRBN/STAT3 in human SU-DHL-4 cells assessed as fold change in STAT3 degradation at 5 uM measured after 24 hrs; format: cell-based
[29] = test system: DB; assay: Downregulation of PCLAF expression in human DB at 5 to 10 uM measured after 24 hrs; format: functional, cell-based; conditions: dose 5-10 µM
[30] = test system: KARPAS-299; assay: Downregulation of PCLAF expression in human KARPAS-299 at 5 to 10 uM measured after 24 hrs; format: functional, cell-based; conditions: dose 5-10 µM
[31] = biological target: T1, Protein cereblon/Signal transducer and activator of transcription 3 (Homo sapiens); assay: PROTAC activity at CRBN/STAT3 in human MOLM16 cells assessed as fold change in STAT3 degradation at 5 uM measured after 24 hrs; format: cell-based
[32] = biological target: T5, Protein cereblon/Signal transducer and activator of transcription 1-alpha/beta (Homo sapiens); assay: PROTAC activity at CRBN/STAT1 in human DB cells assessed as induction of STAT1 degradation at 5 to 10 uM measured after 24 hrs; format: cell-based; conditions: dose 5-10 µM
[33] = biological target: T1, Protein cereblon/Signal transducer and activator of transcription 3 (Homo sapiens); assay: PROTAC activity at CRBN/STAT3 in human KARPAS-299 cells assessed as induction of STAT3 degradation at 5 uM measured after 3 hrs; format: cell-based
[34] = biological target: T1, Protein cereblon/Signal transducer and activator of transcription 3 (Homo sapiens); assay: PROTAC activity at CRBN/STAT3 in human SU-DHL-4 cells assessed as induction of STAT3 degradation at 5 uM measured after 3 hrs; format: cell-based
[35] = biological target: T1, Protein cereblon/Signal transducer and activator of transcription 3 (Homo sapiens); assay: PROTAC activity at CRBN/STAT3 in human SUPM2 cells assessed as fold change in STAT3 degradation at 5 uM measured after 24 hrs; format: cell-based
[36] = test system: Mus musculus; assay: In vivo PROTAC activity at CRBN/STAT1 in human Pfeiffer cells xenografted in CB-17/SCID mouse model bearing middle stage of TPPRC assessed as upregulation of STAT1 by measuring fold change; format: functional
[37] = Toxicity in CB-17/SCID mouse bearing late stage of TPPRC assessed as effect on body weight at 25 to 50 mg/kg, iv measured after 21 days; format: organism-based; conditions: in vivo, 504 h, dose 25-50 mg/kg, time 21 day
[38] = test system: Mus musculus; assay: In vivo PROTAC activity at CRBN/STAT1 in human Pfeiffer cells xenografted in CB-17/SCID mouse model bearing last stage of TPPRC assessed as upregulation of STAT1 by measuring fold change; format: functional
[39] = test system: Pfeiffer; assay: Downregulation of STAT3 expression in patient derived STAT3 high expressing human Pfeiffer cell organoids at 2 uM by Western blot analysis; format: functional, cell-based
[40] = biological target: T1, Protein cereblon/Signal transducer and activator of transcription 3 (Homo sapiens); assay: PROTAC activity at CRBN/STAT3 in human KARPAS-299 cells assessed as induction of STAT3 degradation at 5 to 10 uM measured after 24 hrs; format: cell-based; conditions: dose 5-10 µM
[41] = biological target: T1, Protein cereblon/Signal transducer and activator of transcription 3 (Homo sapiens); assay: PROTAC activity at CRBN/STAT3 in human Pfeiffer cells assessed as fold change in STAT3 degradation at 5 uM measured after 24 hrs; format: cell-based
[42] = biological target: T6, Protein cereblon/Signal transducer and activator of transcription 5B (Homo sapiens); assay: PROTAC activity at CRBN/STAT5B in human DB cells assessed as induction of STAT5B degradation at 5 to 10 uM measured after 24 hrs; format: cell-based; conditions: dose 5-10 µM
[43] = test system: KARPAS-299; assay: Downregulation of NOP53 expression in human KARPAS-299 at 5 to 10 uM measured after 24 hrs; format: functional, cell-based; conditions: dose 5-10 µM
[44] = biological target: T1, Protein cereblon/Signal transducer and activator of transcription 3 (Homo sapiens); assay: PROTAC activity at CRBN/STAT3 in human KARPAS-299 cells assessed as fold change in STAT3 degradation at 5 uM measured after 24 hrs; format: cell-based
[45] = test system: Pfeiffer; assay: Downregulation of STAT1 expression in patient derived STAT1 high expressing human Pfeiffer cell organoids at 2 uM by Western blot analysis; format: functional, cell-based
[46] = test system: Pfeiffer; assay: Antitumor activity against human Pfeiffer cells xenografted in CB-17/SCID mouse model bearing late stage of TPPRC assessed as inhibition of tumor growth at 25 to 50 mg/kg, iv measured upto 21 days; format: functional, organism-based; conditions: dose 25-50 mg/kg, time <= 21.0 day

T1 sequence (P40763 2-770 limits assumed): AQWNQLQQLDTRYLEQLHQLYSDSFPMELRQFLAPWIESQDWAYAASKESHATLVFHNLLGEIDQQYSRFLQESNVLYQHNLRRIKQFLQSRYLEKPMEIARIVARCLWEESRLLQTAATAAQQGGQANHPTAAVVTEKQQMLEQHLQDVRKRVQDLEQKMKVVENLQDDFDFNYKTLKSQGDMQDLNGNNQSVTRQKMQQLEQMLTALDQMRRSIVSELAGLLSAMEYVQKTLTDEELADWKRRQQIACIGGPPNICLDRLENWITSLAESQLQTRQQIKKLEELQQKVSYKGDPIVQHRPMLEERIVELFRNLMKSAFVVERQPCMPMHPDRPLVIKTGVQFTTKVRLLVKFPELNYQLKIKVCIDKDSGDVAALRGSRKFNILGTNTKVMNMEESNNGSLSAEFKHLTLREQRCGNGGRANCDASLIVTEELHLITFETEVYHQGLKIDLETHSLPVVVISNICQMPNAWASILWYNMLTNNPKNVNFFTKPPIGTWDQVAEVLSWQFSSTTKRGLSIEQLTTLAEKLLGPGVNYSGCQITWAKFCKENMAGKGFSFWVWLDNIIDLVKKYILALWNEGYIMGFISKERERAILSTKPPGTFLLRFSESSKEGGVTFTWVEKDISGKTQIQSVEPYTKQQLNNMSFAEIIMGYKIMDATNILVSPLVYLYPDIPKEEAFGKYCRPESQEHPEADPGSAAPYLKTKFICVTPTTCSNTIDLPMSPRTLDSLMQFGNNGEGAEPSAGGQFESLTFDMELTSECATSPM
T1 sequence (Q96SW2 whole entry partner): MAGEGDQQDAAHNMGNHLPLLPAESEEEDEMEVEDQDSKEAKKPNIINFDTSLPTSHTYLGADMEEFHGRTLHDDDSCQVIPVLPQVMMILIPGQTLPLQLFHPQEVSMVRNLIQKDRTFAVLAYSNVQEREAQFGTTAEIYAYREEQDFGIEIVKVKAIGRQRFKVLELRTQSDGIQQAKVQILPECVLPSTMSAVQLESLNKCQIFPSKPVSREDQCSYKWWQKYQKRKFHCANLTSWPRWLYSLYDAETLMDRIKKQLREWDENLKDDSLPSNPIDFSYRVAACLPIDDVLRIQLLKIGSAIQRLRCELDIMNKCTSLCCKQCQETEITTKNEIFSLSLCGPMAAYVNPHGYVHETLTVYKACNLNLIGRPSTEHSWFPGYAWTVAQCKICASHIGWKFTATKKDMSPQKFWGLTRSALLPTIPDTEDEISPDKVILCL
T2 sequence (P42229 whole entry, looked up): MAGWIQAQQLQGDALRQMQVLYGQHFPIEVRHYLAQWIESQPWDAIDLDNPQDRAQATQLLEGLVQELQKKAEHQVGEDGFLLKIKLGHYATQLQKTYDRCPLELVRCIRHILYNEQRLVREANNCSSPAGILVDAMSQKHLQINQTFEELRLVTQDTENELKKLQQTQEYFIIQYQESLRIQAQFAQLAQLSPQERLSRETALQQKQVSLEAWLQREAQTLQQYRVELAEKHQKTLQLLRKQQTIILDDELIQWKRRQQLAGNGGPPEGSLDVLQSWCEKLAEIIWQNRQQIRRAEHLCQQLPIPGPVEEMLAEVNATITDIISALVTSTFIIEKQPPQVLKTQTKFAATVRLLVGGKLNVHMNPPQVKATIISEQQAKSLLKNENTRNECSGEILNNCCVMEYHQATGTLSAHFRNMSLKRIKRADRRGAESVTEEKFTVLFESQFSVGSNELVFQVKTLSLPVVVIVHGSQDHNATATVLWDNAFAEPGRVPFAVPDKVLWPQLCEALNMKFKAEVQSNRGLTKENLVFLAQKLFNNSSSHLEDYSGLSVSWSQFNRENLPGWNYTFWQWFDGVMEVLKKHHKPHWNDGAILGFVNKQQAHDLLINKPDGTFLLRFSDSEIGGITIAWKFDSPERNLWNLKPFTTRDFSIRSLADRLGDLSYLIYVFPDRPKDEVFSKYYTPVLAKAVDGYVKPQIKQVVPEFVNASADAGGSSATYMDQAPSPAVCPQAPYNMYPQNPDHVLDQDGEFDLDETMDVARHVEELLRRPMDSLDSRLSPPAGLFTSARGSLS
T2 sequence (Q96SW2 whole entry, looked up): as the sequence (Q96SW2 whole entry partner) above
T4 sequence (P42226 2-847 limits assumed): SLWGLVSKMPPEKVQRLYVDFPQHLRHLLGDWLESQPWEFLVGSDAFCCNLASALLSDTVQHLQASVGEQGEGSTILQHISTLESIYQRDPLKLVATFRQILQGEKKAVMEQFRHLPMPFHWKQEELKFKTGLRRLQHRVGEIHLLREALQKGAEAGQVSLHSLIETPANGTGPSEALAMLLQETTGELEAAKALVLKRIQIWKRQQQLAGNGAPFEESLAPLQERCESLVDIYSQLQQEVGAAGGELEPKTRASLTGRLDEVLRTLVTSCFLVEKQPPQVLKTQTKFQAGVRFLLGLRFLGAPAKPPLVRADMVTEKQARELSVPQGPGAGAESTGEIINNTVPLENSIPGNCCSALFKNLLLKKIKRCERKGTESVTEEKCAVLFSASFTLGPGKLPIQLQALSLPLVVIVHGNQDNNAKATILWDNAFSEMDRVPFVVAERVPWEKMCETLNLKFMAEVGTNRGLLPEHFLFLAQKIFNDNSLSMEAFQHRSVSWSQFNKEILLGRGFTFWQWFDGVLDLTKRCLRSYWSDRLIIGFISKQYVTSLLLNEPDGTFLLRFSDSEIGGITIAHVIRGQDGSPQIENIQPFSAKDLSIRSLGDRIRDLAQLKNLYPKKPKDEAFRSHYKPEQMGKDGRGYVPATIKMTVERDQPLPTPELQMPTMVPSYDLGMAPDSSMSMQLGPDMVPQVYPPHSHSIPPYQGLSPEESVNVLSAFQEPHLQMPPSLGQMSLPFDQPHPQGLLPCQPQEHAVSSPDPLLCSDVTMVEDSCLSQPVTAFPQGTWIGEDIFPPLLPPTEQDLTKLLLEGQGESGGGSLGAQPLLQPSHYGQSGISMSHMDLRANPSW
T4 sequence (Q96SW2 whole entry partner): as the sequence (Q96SW2 whole entry partner) above
T6 sequence (P51692 whole entry, looked up): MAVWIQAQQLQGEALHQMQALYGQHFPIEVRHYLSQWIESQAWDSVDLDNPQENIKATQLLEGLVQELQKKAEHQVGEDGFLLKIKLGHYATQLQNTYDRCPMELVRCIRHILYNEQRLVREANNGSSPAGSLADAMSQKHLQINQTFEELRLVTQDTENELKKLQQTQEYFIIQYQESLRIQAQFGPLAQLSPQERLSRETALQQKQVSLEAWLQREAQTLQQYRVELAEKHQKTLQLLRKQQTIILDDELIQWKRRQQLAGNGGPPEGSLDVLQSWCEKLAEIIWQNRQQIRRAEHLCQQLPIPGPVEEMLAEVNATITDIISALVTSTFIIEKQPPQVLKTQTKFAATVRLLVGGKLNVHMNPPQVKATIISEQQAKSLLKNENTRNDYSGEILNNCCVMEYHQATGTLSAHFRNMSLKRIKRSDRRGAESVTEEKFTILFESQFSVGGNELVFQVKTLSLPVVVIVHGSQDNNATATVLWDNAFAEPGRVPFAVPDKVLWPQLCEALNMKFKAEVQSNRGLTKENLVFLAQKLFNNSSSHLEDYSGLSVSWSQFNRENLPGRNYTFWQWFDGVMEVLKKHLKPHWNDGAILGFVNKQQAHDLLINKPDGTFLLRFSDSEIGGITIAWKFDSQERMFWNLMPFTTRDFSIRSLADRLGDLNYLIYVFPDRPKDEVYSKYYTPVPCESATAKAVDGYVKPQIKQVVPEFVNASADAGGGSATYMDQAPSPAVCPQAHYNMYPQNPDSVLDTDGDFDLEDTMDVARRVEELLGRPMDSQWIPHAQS
T6 sequence (Q96SW2 whole entry, looked up): as the sequence (Q96SW2 whole entry partner) above
T3 sequence (P52630 whole entry, looked up): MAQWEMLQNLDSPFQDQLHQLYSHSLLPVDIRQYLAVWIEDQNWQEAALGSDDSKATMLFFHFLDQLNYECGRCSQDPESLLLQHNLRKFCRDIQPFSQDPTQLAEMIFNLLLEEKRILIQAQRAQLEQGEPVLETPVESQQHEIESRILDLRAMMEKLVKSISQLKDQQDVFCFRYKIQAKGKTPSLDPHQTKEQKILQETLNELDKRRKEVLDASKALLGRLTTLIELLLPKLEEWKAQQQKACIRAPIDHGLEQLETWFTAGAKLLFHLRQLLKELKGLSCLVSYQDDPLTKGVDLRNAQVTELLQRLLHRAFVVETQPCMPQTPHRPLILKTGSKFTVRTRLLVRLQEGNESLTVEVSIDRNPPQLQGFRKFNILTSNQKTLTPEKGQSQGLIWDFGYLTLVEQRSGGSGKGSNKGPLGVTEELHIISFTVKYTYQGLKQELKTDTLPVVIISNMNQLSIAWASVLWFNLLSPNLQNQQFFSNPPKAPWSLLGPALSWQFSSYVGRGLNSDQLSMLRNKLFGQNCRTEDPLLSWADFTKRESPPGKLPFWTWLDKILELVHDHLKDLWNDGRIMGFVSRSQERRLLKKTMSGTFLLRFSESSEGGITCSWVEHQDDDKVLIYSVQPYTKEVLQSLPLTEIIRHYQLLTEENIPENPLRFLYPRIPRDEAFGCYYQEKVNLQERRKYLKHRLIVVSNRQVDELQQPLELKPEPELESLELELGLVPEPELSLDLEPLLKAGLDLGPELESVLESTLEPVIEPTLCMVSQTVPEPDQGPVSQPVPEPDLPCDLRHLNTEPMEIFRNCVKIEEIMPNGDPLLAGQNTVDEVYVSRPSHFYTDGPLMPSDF
T3 sequence (Q96SW2 whole entry, looked up): as the sequence (Q96SW2 whole entry partner) above

NC(=O)CC[C@H](NC(=O)[C@@H]1CC[C@@H]2CCN(C(=O)CCCCCC#Cc3cccc4c3CN(C3CCC(=O)NC3=O)C4=O)C[C@H](NC(=O)c3cc4cc(C(F)(F)P(=O)(O)O)ccc4[nH]3)C(=O)N21)C(=O)NC(c1ccccc1)c1ccccc1 (stereo partly specified)
0.66: fold change (FC) [21] | fold change (FC) [28] | fold change (FC) [31] | fold change (FC) [35] | fold change (FC) [41] | fold change (FC) [44]
inactive: Activity [4] | Activity [5] | Activity [6] | Activity [8] | Activity [9] | Activity [10] | Activity [13] | Activity [17] | Activity [18] | Activity [19] | Activity [22] | Activity [23] | Activity [27] | Activity [29] | Activity [32] | Activity [42]
active: Activity [1] | Activity [2] | Activity [3] | Activity [7] | Activity [11] Dose-Dependent Effect | Activity [12] | Activity [14] | Activity [15] | Activity [16] | Activity [20] | Activity [24] | Activity [25] | Activity [26] | Activity [30] | Activity [33] | Activity [34] | Activity [39] | Activity [40] | Activity [43] | Activity [45] | Activity [46]
>3.5: fold change (FC) [36] | fold change (FC) [38]
Non-Toxic: Activity [37]
